Measured values taken from PubChem BioAssay (NCI).
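Cells were grown in 96-well plates and exposed to each compound for 48 hours at five concentrations; endpoints were interpolated linearly between bracketing concentrations, or set to the highest concentration if not reached. GI50 is the concentration that inhibits growth by half. TGI marks complete inhibition of growth.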

Columns and labels:
Test in all cases: growth of human tumour cells (NCI), 48 h
HCC-2998 colon = tested on: HCC-2998 colon
HOP-92 NSCLC = tested on: HOP-92 NSCLC
HT29 colon = tested on: HT29 colon
IGROV1 ovarian = tested on: IGROV1 ovarian
MALME-3M melanoma = tested on: MALME-3M melanoma
SK-MEL-5 melanoma = tested on: SK-MEL-5 melanoma
U251 CNS = tested on: U251 CNS
UACC-257 melanoma = tested on: UACC-257 melanoma
UACC-62 melanoma = tested on: UACC-62 melanoma
HS 578T breast = tested on: HS 578T breast

CC(C)(C)C(=O)O[C@@H]1COC2C(O)COC21 (stereo partly specified)
TGI (HCC-2998 colon): > 100 µM | TGI (HOP-92 NSCLC): > 100 µM | TGI (HT29 colon): > 100 µM | TGI (IGROV1 ovarian): > 100 µM | TGI (MALME-3M melanoma): > 100 µM | TGI (SK-MEL-5 melanoma): > 100 µM | TGI (U251 CNS): > 100 µM | TGI (UACC-257 melanoma): > 100 µM | TGI (UACC-62 melanoma): > 100 µM

CCC(C(=O)[O-])C(=O)[O-].CCC(C(=O)[O-])C(=O)[O-].N.N.NCCCCCCN.[Pt+4].[Pt+4]
GI50 (HCC-2998 colon): 8.29 µM | TGI (HCC-2998 colon): 15.8 µM | GI50 (HOP-92 NSCLC): 1.24 µM | TGI (HOP-92 NSCLC): 3.87 µM | GI50 (HT29 colon): 9.01 µM | TGI (HT29 colon): 19.4 µM | GI50 (IGROV1 ovarian): 8.13 µM | TGI (IGROV1 ovarian): 18.7 µM | GI50 (MALME-3M melanoma): 1 µM | TGI (MALME-3M melanoma): 1.9 µM | GI50 (SK-MEL-5 melanoma): 3.35 µM | TGI (SK-MEL-5 melanoma): 9.46 µM | GI50 (U251 CNS): 8.8 µM | TGI (U251 CNS): 16.5 µM | GI50 (UACC-257 melanoma): 6.14 µM | TGI (UACC-257 melanoma): 14 µM | GI50 (UACC-62 melanoma): 7.5 µM | TGI (UACC-62 melanoma): 14.6 µM

Cc1cc(C)c(S(=O)(=O)ONC(=O)OC(C)(C)C)c(C)c1
TGI (HCC-2998 colon): > 100 µM | TGI (HOP-92 NSCLC): > 100 µM | TGI (HT29 colon): > 100 µM | TGI (IGROV1 ovarian): > 100 µM | TGI (MALME-3M melanoma): > 100 µM | TGI (SK-MEL-5 melanoma): > 100 µM | TGI (U251 CNS): > 100 µM | TGI (UACC-257 melanoma): > 100 µM | TGI (UACC-62 melanoma): > 100 µM

Cn1c(=S)c2[nH]c(SCCN3CCCC3)nc2n(C)c1=O
TGI (HOP-92 NSCLC): > 100 µM | TGI (HS 578T breast): > 100 µM | TGI (HT29 colon): > 100 µM | TGI (IGROV1 ovarian): > 100 µM | TGI (MALME-3M melanoma): > 100 µM | TGI (SK-MEL-5 melanoma): > 100 µM | TGI (U251 CNS): > 100 µM | TGI (UACC-257 melanoma): > 100 µM | TGI (UACC-62 melanoma): > 100 µM

COc1cc([C@@H]2c3cc4c(cc3[C@@H](NC(=O)c3cccc(F)c3)C3COC(=O)[C@@H]32)OCO4)cc(OC)c1O (stereo partly specified)
TGI (HCC-2998 colon): 11.3 µM | TGI (HOP-92 NSCLC): 89.6 µM | TGI (HT29 colon): 15.4 µM | TGI (IGROV1 ovarian): 10.6 µM | TGI (MALME-3M melanoma): 7.83 µM | TGI (SK-MEL-5 melanoma): 12.7 µM | TGI (U251 CNS): 1.94 µM | TGI (UACC-257 melanoma): 58.1 µM | TGI (UACC-62 melanoma): 3.7 µM

Nc1nnc(Cn2c(-c3ccccc3)nc3ccc(Br)cc3c2=O)s1
GI50 (HCC-2998 colon): 42.6 µM | TGI (HCC-2998 colon): > 100 µM | GI50 (HOP-92 NSCLC): 10.8 µM | TGI (HOP-92 NSCLC): > 100 µM | GI50 (HS 578T breast): 41.4 µM | TGI (HS 578T breast): > 100 µM | GI50 (HT29 colon): 48.1 µM | TGI (HT29 colon): > 100 µM | GI50 (IGROV1 ovarian): 18.3 µM | TGI (IGROV1 ovarian): > 100 µM | GI50 (SK-MEL-5 melanoma): 26.8 µM | TGI (SK-MEL-5 melanoma): 86.2 µM | GI50 (U251 CNS): 38.4 µM | TGI (U251 CNS): > 100 µM | GI50 (UACC-62 melanoma): 15.2 µM | TGI (UACC-62 melanoma): > 100 µM

COc1ccc2c(c1)CCC1=CC3(CCC12C)SCCS3 (stereo unspecified)
TGI (HCC-2998 colon): > 10 µM | TGI (HOP-92 NSCLC): > 10 µM | TGI (HT29 colon): > 10 µM | TGI (IGROV1 ovarian): > 10 µM | TGI (MALME-3M melanoma): > 10 µM | TGI (SK-MEL-5 melanoma): > 10 µM | TGI (U251 CNS): > 10 µM | TGI (UACC-257 melanoma): > 10 µM | TGI (UACC-62 melanoma): > 10 µM

O=C(CC(=O)C1CCOC1=O)C(=O)Nc1ccc(Cl)cc1Cl (stereo unspecified)
TGI (HCC-2998 colon): > 100 µM | TGI (HOP-92 NSCLC): > 100 µM | TGI (HT29 colon): > 100 µM | TGI (IGROV1 ovarian): > 100 µM | TGI (MALME-3M melanoma): > 100 µM | TGI (SK-MEL-5 melanoma): > 100 µM | TGI (U251 CNS): > 100 µM | TGI (UACC-257 melanoma): > 100 µM | TGI (UACC-62 melanoma): > 100 µM

COc1ccc(/C(=N/NC(N)=O)C(c2ccc(OC)cc2)C2C(=O)Oc3ccccc32)cc1 (stereo unspecified)
TGI (HCC-2998 colon): > 100 µM | TGI (HOP-92 NSCLC): > 100 µM | TGI (HT29 colon): > 100 µM | TGI (IGROV1 ovarian): > 100 µM | TGI (MALME-3M melanoma): > 100 µM | TGI (SK-MEL-5 melanoma): > 100 µM | TGI (U251 CNS): > 100 µM | TGI (UACC-257 melanoma): > 100 µM | TGI (UACC-62 melanoma): > 100 µM

OC(c1ccccn1)C1CNc2ccccc21 (stereo unspecified)
TGI (HCC-2998 colon): > 100 µM | TGI (HOP-92 NSCLC): > 100 µM | TGI (HT29 colon): > 100 µM | TGI (IGROV1 ovarian): > 100 µM | TGI (MALME-3M melanoma): > 100 µM | TGI (SK-MEL-5 melanoma): > 100 µM | TGI (U251 CNS): > 100 µM | TGI (UACC-257 melanoma): > 100 µM | TGI (UACC-62 melanoma): > 100 µM

O=C1C(Cl)=C(Nc2cccc(O)c2)C(=O)N1c1ccccc1Cl
GI50 (HS 578T breast): 21 µM | TGI (HS 578T breast): 77.7 µM | GI50 (HT29 colon): 24.6 µM | TGI (HT29 colon): 89.2 µM | GI50 (MALME-3M melanoma): 10.9 µM | TGI (MALME-3M melanoma): 69.1 µM | GI50 (SK-MEL-5 melanoma): 18.8 µM | TGI (SK-MEL-5 melanoma): 65.6 µM | GI50 (U251 CNS): 33.3 µM | TGI (U251 CNS): > 100 µM | GI50 (UACC-62 melanoma): 19.6 µM | TGI (UACC-62 melanoma): 62.3 µM

COc1ccc(-c2c(-c3cc(OC)c4c(c3)OCO4)noc2N)cc1
GI50 (HCC-2998 colon): 0.11 µM | TGI (HCC-2998 colon): 18.3 µM | GI50 (HOP-92 NSCLC): 3.72 µM | TGI (HOP-92 NSCLC): 35.8 µM | GI50 (HS 578T breast): 0.0302 µM | TGI (HS 578T breast): 49.6 µM | GI50 (HT29 colon): 0.0353 µM | TGI (HT29 colon): 1.63 µM | GI50 (IGROV1 ovarian): 0.093 µM | TGI (IGROV1 ovarian): > 100 µM | GI50 (SK-MEL-5 melanoma): 0.0288 µM | TGI (SK-MEL-5 melanoma): 0.485 µM | GI50 (U251 CNS): 0.0382 µM | TGI (U251 CNS): 42.7 µM | GI50 (UACC-62 melanoma): 0.05 µM | TGI (UACC-62 melanoma): 20.7 µM

O=C(O)Cn1c(=O)[nH]c(=O)c2c1ncn2Cc1ccccc1
TGI (HOP-92 NSCLC): > 100 µM | TGI (HT29 colon): > 100 µM | TGI (MALME-3M melanoma): > 100 µM | TGI (SK-MEL-5 melanoma): > 100 µM | TGI (U251 CNS): > 100 µM | TGI (UACC-62 melanoma): > 100 µM

CC(=O)NNc1nc(C)c(C(/C=C/c2ccc(Cl)cc2)=N/NC(=O)C[N+](C)(C)C)s1
TGI (HCC-2998 colon): > 100 µM | TGI (HOP-92 NSCLC): > 100 µM | TGI (HT29 colon): > 100 µM | TGI (IGROV1 ovarian): > 100 µM | TGI (MALME-3M melanoma): > 100 µM | TGI (SK-MEL-5 melanoma): > 100 µM | TGI (UACC-257 melanoma): > 100 µM | TGI (UACC-62 melanoma): > 100 µM

COC(=O)c1ccc(Cc2ccc(C(=O)OC)o2)o1
TGI (HCC-2998 colon): > 378 µM | TGI (HOP-92 NSCLC): > 378 µM | TGI (HT29 colon): > 378 µM | TGI (IGROV1 ovarian): > 378 µM | TGI (MALME-3M melanoma): > 378 µM | TGI (SK-MEL-5 melanoma): > 378 µM | TGI (U251 CNS): > 378 µM | TGI (UACC-257 melanoma): > 378 µM | TGI (UACC-62 melanoma): > 378 µM

CCC[CH2][Sn]([CH2]CCC)([O]C(=O)C1CCC(=O)N1)[O]C(=O)C1CCC(=O)N1 (stereo unspecified)
GI50 (HCC-2998 colon): 0.4 µM | TGI (HCC-2998 colon): 1.59 µM | GI50 (HOP-92 NSCLC): 0.141 µM | TGI (HOP-92 NSCLC): 0.575 µM | GI50 (HT29 colon): 0.588 µM | TGI (HT29 colon): 2.06 µM | GI50 (IGROV1 ovarian): 1.1 µM | TGI (IGROV1 ovarian): 2.48 µM | GI50 (MALME-3M melanoma): 0.0783 µM | TGI (MALME-3M melanoma): 0.243 µM | GI50 (SK-MEL-5 melanoma): 0.461 µM | TGI (SK-MEL-5 melanoma): 1.65 µM | GI50 (U251 CNS): 0.164 µM | TGI (U251 CNS): 0.33 µM | GI50 (UACC-257 melanoma): 0.159 µM | TGI (UACC-257 melanoma): 0.338 µM | GI50 (UACC-62 melanoma): 0.154 µM | TGI (UACC-62 melanoma): 0.331 µM

Cc1ccc(C)c(NC(=O)CCc2nc(=S)[nH][nH]2)c1
TGI (HCC-2998 colon): > 100 µM | TGI (HOP-92 NSCLC): > 100 µM | TGI (HT29 colon): > 100 µM | TGI (IGROV1 ovarian): > 100 µM | TGI (MALME-3M melanoma): > 100 µM | TGI (SK-MEL-5 melanoma): > 100 µM | TGI (U251 CNS): > 100 µM | TGI (UACC-257 melanoma): > 100 µM | TGI (UACC-62 melanoma): > 100 µM

CCCCCCCCCCCCN(O)C(=O)c1ccccc1
TGI (HCC-2998 colon): > 100 µM | TGI (HOP-92 NSCLC): 71.8 µM | TGI (HT29 colon): > 100 µM | TGI (IGROV1 ovarian): > 100 µM | TGI (MALME-3M melanoma): 60.7 µM | TGI (U251 CNS): 29.8 µM | TGI (UACC-257 melanoma): 49.1 µM | TGI (UACC-62 melanoma): > 100 µM

COCCOCC(=O)N(CCn1ccc(NC(c2ccccc2)(c2ccccc2)c2ccccc2)nc1=O)CCn1cnc2nc(N)[nH]c(=O)c21
TGI (HCC-2998 colon): > 100 µM | TGI (HOP-92 NSCLC): > 100 µM | TGI (HT29 colon): > 100 µM | TGI (IGROV1 ovarian): > 100 µM | TGI (MALME-3M melanoma): > 100 µM | TGI (SK-MEL-5 melanoma): > 100 µM | TGI (U251 CNS): > 100 µM | TGI (UACC-257 melanoma): > 100 µM | TGI (UACC-62 melanoma): > 100 µM
